In paper PMC8068801, “Novel Benzenesulfonate Scaffolds with a High Anticancer Activity and G2/M Cell Cycle Arrest” (Cancers, 2021):
Blank lines part the entries; values can stand above or below the compound they belong to.

Legend:
HCT 116 p53^+/+ cells = assay: MTS cytotoxicity assay, HCT 116 p53+/+; type: cell-based, human; settings: for IC50: Homo sapiens, HCT 116 p53^+/+, 72 h incubation, MTS; for Selectivity index, HCT 116 p53+/+: NHDF vs HCT 116 p53+/+
Source text: (§1) M. Rusin from the Maria Sklodowska-Curie Memorial Cancer Centre and Institute of Oncology in Gliwice, Poland. […] G. Kramer-Marek from the Institute of Cancer Research in London, United Kingdom. The human suspension chronic myelogenous leukemia cell line K562 and pancreas ductal adenocarcinoma cell line PANC-1 were purchased from Sigma-Aldrich (St. Louis, MO, USA), while the normal human dermal fibroblasts cell line NHDF were purchased from PromoCell. […] Each medium contained a combination of two antibiotics: penicillin and streptomycin (1% v/v; Gibco). All of these cell lines were grown under standard conditions at 37 °C with a 5% CO2 humidified atmosphere. Moreover, all of the cell lines were routinely tested for mycoplasma using the PCR technique with specific Mycoplasma primers to confirm that there was no contamination.
(§2) The assay was performed following a 72 h incubation with the various concentrations of the tested compounds. Then, 100 µL DMEM without phenol red with 20 µL of the CellTiter 96®AQueous One Solution-MTS (Promega, Promega, WI, USA) was added to each well and incubated for 1 h or 3 h (PANC-1) at 37 °C. The optical densities of the samples were measured at 490 nm using a multi-plate reader (Synergy 4, BioTek, Winooski, VT, USA). […] Each individual compound was tested in triplicate in a single experiment with each experiment being performed three or four times.

HCT 116 p53^−/− cells = assay: MTS cytotoxicity assay, HCT 116 p53-/-; type: cell-based, human; settings: for IC50: Homo sapiens, HCT 116 p53^−/−, 72 h incubation, MTS; for Selectivity index, HCT 116 p53 −/−: NHDF vs HCT 116 p53 −/−
Source text: as §1, §2

MCF-7 cells = assay: MTS cytotoxicity assay, MCF-7; type: cell-based, human; settings: for IC50: Homo sapiens, MCF7, MCF-7, 72 h incubation, MTS; for Selectivity index, MCF-7: NHDF vs MCF-7
Source text: as §1, §2

A549 cells = assay: MTS cytotoxicity assay, A549; type: cell-based, human; settings: for IC50: Homo sapiens, A549, 72 h, A549, 72 h incubation, MTS; for Selectivity index, A549: NHDF vs A549
Source text: as §1, §2

ABL1 = target: T1, ABL1 (Homo sapiens, UniProt P00519); assay: Tyrosine kinase assay (Kinase Selectivity TK-2, ADP-Glo); type: biochemical; settings: read-out: Inhibitory Effect of the Tyrosine Kinase Activity, ABL1
T1 construct: purchased Promega
T1 sequence (P00519 whole entry): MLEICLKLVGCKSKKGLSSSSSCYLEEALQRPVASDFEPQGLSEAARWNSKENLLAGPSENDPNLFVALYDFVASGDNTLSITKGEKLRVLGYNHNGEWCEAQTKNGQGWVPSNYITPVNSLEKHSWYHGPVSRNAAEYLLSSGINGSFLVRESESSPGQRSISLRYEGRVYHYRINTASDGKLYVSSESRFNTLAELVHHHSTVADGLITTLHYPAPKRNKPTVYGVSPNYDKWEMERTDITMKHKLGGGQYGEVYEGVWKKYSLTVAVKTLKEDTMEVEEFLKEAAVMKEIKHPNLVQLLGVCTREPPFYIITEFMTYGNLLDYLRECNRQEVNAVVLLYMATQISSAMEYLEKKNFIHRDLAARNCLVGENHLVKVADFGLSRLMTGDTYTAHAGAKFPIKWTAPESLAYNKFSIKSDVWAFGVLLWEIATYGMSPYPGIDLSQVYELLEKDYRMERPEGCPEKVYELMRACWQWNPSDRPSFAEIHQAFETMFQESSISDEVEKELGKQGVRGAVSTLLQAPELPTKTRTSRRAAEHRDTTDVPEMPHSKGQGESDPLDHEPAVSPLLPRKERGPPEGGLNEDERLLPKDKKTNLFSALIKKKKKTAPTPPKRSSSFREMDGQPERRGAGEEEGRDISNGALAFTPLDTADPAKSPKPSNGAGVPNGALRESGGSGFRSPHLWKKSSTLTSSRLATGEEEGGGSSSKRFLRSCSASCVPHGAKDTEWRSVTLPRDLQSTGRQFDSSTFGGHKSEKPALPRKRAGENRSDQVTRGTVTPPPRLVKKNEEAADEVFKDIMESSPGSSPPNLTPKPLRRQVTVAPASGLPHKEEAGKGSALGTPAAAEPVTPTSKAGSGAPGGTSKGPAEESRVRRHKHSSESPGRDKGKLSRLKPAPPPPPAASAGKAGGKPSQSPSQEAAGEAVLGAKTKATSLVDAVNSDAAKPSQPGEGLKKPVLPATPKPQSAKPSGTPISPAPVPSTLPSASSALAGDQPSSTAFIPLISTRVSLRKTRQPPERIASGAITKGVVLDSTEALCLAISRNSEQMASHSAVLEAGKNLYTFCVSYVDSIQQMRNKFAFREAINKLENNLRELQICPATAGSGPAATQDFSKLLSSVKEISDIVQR
Description: (§3) Assays using the Kinase Selectivity TK-2 profiling systems and ADP-Glo Kinase Assay (both from Promega) were performed to determine the inhibition of the non-receptor tyrosine kinases. The protocol was previously designed and described by our group in reports. The experiments were performed at least four times. The data are expressed as the percentage of the inhibition activity of tyrosine kinase after treatment with the tested derivatives.

BRK = target: T2, BRK (Homo sapiens, UniProt Q13882); assay: as above; type: biochemical; settings: read-out: Inhibitory Effect of the Tyrosine Kinase Activity, BRK
T2 construct: purchased Promega
T2 sequence (Q13882 whole entry): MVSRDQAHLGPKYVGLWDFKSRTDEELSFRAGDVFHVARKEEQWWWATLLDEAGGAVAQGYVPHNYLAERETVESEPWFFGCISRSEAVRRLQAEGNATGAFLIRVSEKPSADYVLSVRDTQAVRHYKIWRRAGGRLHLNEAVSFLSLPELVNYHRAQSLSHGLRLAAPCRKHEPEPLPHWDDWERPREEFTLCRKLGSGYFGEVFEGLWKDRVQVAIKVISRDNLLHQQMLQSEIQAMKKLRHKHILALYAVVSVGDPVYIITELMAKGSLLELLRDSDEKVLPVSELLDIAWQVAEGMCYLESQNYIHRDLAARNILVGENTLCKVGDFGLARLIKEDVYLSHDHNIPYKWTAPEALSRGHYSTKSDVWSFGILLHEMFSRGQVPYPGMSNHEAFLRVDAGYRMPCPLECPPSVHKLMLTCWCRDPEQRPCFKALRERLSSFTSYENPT
Description: as §3

BTK = target: T3, BTK (Homo sapiens, UniProt Q06187); assay: as above; type: biochemical; settings: read-out: Inhibitory Effect of the Tyrosine Kinase Activity, BTK
T3 construct: purchased Promega
T3 sequence (Q06187 whole entry): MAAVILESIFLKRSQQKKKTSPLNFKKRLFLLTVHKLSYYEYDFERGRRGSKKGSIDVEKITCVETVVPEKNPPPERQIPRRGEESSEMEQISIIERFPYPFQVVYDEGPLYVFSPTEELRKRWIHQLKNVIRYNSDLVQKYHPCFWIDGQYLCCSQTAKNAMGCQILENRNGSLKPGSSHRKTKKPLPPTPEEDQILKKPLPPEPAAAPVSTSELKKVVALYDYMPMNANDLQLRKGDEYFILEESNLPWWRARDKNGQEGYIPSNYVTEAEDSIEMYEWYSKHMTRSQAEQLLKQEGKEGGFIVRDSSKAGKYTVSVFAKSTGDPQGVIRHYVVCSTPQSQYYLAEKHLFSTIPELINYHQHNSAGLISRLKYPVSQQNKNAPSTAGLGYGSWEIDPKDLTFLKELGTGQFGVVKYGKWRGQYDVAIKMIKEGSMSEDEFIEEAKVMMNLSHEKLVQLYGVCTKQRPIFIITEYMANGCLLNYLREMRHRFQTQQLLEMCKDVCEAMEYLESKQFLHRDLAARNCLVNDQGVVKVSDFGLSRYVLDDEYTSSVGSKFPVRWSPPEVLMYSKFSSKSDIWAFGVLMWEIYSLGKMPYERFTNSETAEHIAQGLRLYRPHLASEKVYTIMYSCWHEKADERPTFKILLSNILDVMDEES
Description: as §3

CSK = target: T4, CSK (Homo sapiens, UniProt P41240); assay: as above; type: biochemical; settings: read-out: Inhibitory Effect of the Tyrosine Kinase Activity, CSK
T4 construct: purchased Promega
Description: as §3

Fyn A = target: T5, Fyn A (Homo sapiens, UniProt P06241); assay: as above; type: biochemical; settings: read-out: Inhibitory Effect of the Tyrosine Kinase Activity, Fyn A
T5 construct: purchased Promega
T5 sequence (P06241 whole entry): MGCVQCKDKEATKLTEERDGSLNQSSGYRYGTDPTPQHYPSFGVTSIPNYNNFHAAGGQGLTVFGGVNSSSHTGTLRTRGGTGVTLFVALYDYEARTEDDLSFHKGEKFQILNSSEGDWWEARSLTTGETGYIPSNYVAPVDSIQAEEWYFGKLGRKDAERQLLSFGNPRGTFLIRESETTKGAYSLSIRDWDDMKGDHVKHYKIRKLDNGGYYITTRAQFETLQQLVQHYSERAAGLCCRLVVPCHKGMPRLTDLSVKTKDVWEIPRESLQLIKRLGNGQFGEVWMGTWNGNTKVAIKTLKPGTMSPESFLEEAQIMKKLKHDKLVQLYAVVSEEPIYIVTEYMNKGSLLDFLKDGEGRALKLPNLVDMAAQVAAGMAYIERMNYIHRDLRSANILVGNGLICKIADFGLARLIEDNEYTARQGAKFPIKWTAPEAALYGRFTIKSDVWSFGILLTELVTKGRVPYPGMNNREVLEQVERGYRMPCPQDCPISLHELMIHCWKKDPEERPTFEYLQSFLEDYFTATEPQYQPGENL
Description: as §3

Lck = target: T6, Lck (Homo sapiens, UniProt P06239); assay: as above; type: biochemical; settings: read-out: Inhibitory Effect of the Tyrosine Kinase Activity, Lck
T6 construct: purchased Promega
T6 sequence (P06239 whole entry): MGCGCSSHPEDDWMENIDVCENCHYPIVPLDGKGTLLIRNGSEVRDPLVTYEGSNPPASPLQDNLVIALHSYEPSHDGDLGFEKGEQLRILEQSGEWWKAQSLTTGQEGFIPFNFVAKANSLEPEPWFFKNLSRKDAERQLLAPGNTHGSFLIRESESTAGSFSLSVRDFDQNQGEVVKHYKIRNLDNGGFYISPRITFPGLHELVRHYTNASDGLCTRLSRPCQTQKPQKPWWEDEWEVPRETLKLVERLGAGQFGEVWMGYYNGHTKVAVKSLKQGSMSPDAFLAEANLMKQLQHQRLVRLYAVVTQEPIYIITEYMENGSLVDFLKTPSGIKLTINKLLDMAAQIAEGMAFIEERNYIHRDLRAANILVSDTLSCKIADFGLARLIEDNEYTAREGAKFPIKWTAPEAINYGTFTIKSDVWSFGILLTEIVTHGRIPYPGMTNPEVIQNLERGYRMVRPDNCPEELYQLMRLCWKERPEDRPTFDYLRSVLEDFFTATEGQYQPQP
Description: as §3

Lyn B = target: T7, Lyn B (Homo sapiens, UniProt P07948); assay: as above; type: biochemical; settings: read-out: Inhibitory Effect of the Tyrosine Kinase Activity, Lyn B
T7 construct: purchased Promega
T7 sequence (P07948 1-491 isoform P07948-2): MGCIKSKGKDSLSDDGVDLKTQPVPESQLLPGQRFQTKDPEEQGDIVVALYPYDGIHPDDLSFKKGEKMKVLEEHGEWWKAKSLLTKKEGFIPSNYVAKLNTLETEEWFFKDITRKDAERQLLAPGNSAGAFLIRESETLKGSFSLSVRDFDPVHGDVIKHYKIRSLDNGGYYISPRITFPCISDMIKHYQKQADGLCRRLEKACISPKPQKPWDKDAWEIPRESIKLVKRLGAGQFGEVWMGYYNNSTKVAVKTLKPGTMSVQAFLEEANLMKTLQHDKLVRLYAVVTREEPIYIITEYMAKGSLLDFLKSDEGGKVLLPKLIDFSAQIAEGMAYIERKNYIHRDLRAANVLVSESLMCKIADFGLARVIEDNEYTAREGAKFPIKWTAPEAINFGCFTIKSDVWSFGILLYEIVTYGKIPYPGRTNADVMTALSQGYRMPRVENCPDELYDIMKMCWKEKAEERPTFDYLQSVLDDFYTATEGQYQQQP
Description: as §3

Src = target: T8, Src (Homo sapiens, UniProt P12931); assay: as above; type: biochemical; settings: read-out: Inhibitory Effect of the Tyrosine Kinase Activity, Src
T8 construct: purchased Promega
T8 sequence (P12931 whole entry): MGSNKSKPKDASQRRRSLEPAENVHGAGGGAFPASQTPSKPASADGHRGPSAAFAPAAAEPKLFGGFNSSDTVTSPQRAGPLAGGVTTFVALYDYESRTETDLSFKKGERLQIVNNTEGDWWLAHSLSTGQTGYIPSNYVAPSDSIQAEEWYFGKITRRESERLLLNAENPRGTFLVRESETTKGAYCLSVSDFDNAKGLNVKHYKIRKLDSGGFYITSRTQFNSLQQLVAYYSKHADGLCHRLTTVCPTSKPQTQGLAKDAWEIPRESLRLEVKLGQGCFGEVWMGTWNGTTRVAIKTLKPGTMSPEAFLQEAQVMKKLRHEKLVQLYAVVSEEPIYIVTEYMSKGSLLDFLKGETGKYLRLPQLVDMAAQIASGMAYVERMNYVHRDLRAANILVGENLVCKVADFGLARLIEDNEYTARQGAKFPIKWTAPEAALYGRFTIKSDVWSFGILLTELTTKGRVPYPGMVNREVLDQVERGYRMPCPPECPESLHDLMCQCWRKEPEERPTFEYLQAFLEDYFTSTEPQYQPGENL
Description: as §3

U-251 cells = assay: Immunoblotting with densitometry, U-251; type: cell-based, human; settings: for PARP/Reference 89 kDa, densitometric intensity ratio / caspase-9/Reference 37-35 kDa, densitometric intensity ratio: control 0.330; for BID/Reference 22 kDa, densitometric intensity ratio / Cathepsin b/Reference 44 kDa, densitometric intensity ratio / HIF-1α/Reference 120 kDa, densitometric intensity ratio / PARP/Reference 116 kDa, densitometric intensity ratio / caspase-9/Reference 47 kDa, densitometric intensity ratio / cdc2/Reference 34 kDa, densitometric intensity ratio / cyclin E1/Reference 48 kDa, densitometric intensity ratio / p21/Reference 21 kDa, densitometric intensity ratio / p53/Reference 53 kDa, densitometric intensity ratio: control 1.000; for Cathepsin b/Reference 27 kDa, densitometric intensity ratio: control 2.837; for Cathepsin b/Reference 22 kDa, densitometric intensity ratio: control […]
Description: The K562 and U-251 cells were seeded in 3 cm Petri dishes (Nunc) at a density of 500,000 cells per well and incubated overnight. […] Next, the cell pellets were resuspended in an RIPA buffer containing a Halt Protease Inhibitor Cocktail and a Halt Phosphatase Inhibitor Cocktail along with 0.5 M EDTA (all from Thermo Scientific, Waltham, MA, USA) and lysed on ice for 20 min. Then, the obtained lysates were sonicated and centrifuged at 10,000 rpm for 10 min at 4 °C. The supernatants were collected for further analysis. The protein concentration was measured using a Micro BCA™ Protein Assay Kit (Thermo Scientific) according to the manufacturer’s instructions. Equal amounts of the proteins (16 μg) were electrophoresed on SDS-Page gels and transferred onto nitrocellulose membranes. The membranes were blocked in 5% non-fat milk prepared in TPBS (PBS containing 0.1% Tween-20) for 1 h. After blocking, the membranes were incubated with the specific primary antibodies (all from Cell Signaling) at a 1:1000 dilution—cyclin E, cdc2, PARP, AIF, BID, p53, p21^Waf1/Cip1, HIF-1α, cathepsin B and caspase-9—and at a 1:2000 dilution for the reference proteins—vinculin, β-actin and GAPDH—overnight at 4 °C. The next day, the membranes were washed in TPBS and incubated with horseradish peroxidase (HRP)-conjugated secondary antibodies for 1 h at room temperature. Lastly, the membranes were washed in TPBS and incubated with a SuperSignal™ West Pico Chemiluminescent Substrate (Thermo Scientific). The chemiluminescence signals were captured using a ChemiDoc™ XRS + System (Biorad). The experiments were performed at least four to five times. The densitometric analysis was conducted using ImageJ software (Wayne Rasband, National Institutes of Health, Bethesda, MD, USA).
The band intensity of tested proteins (p53, cyclin E1, cdc2, p21, HIF-1α, cathepsin b, PARP, caspase-9, BID, AIF) were analyzed by densitometry readings/intensity ratio, using ImageJ software (NIH) and were normalized to the corresponding reference proteins (GAPDH, vinculin or β-actin) value.
The densitometric readings/intensity ratio data from four/five independent experiments (compared to control): […]
p53/ Refer- p21/ Refer- cdc2/ Refer- Cyclin E1/ HIF-1α/ Cathepsin b/Reference ence ence ence Reference Reference
PARP/Reference BID/ Reference Caspase-9/Reference […]

inhibition at 0.5 µM (ABL1): 0%
inhibition at 0.5 µM (BRK): 9.33%
inhibition at 0.5 µM (BTK): 40.2%
inhibition at 0.5 µM (CSK): 34.2%
inhibition at 0.5 µM (Fyn A): 0%
inhibition at 0.5 µM (Lck): 9.93%
inhibition at 0.5 µM (Lyn B): 38%
inhibition at 0.5 µM (Src): 26.3%
Structure (SMILES): COc1ccccc1/C=C/c1nc(OS(=O)(=O)c2cc3c(cc2Br)OCO3)c2ccccc2n1 [BS2, 2-((E)-2-(2-methoxyphenyl)ethenyl)quinazolin-4-yl 6-bromo-1,3-benzodioxole-5-sulfonate]
IC50 (HCT 116 p53^+/+ cells): 1.2 ± 0.132 µM
Selectivity index, HCT 116 p53+/+ (HCT 116 p53^+/+ cells): 13.06
IC50 (HCT 116 p53^−/− cells): 1.31 ± 0.29 µM
Selectivity index, HCT 116 p53 −/− (HCT 116 p53^−/− cells): 11.94
IC50 (MCF-7 cells): 16.8 ± 2.06 µM
Selectivity index, MCF-7 (MCF-7 cells): 0.93
IC50 (A549 cells): > 25 µM
Selectivity index, A549 (A549 cells): 1.00
PARP/Reference 89 kDa, densitometric intensity ratio (U-251 cells; U-251, 4µM, 24 h): 0.763
caspase-9/Reference 37-35 kDa, densitometric intensity ratio (U-251 cells; U-251, 4µM, 24 h): 1.071
BID/Reference 22 kDa, densitometric intensity ratio (U-251 cells; U-251, 4µM, 24 h): 0.701
Cathepsin b/Reference 44 kDa, densitometric intensity ratio (U-251 cells; U-251, 4µM, 24 h): 1.805
HIF-1α/Reference 120 kDa, densitometric intensity ratio (U-251 cells; U-251, 4µM, 24 h): 0.587
PARP/Reference 116 kDa, densitometric intensity ratio (U-251 cells; U-251, 4µM, 24 h): 0.953
caspase-9/Reference 47 kDa, densitometric intensity ratio (U-251 cells; U-251, 4µM, 24 h): 1.007
cdc2/Reference 34 kDa, densitometric intensity ratio (U-251 cells; U-251, 4µM, 24 h): 2.272
cyclin E1/Reference 48 kDa, densitometric intensity ratio (U-251 cells; U-251, 4µM, 24 h): 0.465
p21/Reference 21 kDa, densitometric intensity ratio (U-251 cells; U-251, 4µM, 24 h): 2.205
p53/Reference 53 kDa, densitometric intensity ratio (U-251 cells; U-251, 4µM, 24 h): 1.698
Cathepsin b/Reference 27 kDa, densitometric intensity ratio (U-251 cells; U-251, 4µM, 24 h): 2.625
Cathepsin b/Reference 22 kDa, densitometric intensity ratio (U-251 cells; U-251, 4µM, 24 h): 2.893
PARP/Reference 89 kDa, densitometric intensity ratio (U-251 cells; U-251, 6µM, 24 h): 0.698
caspase-9/Reference 37-35 kDa, densitometric intensity ratio (U-251 cells; U-251, 6µM, 24 h): 1.188
BID/Reference 22 kDa, densitometric intensity ratio (U-251 cells; U-251, 6µM, 24 h): 1.227
Cathepsin b/Reference 44 kDa, densitometric intensity ratio (U-251 cells; U-251, 6µM, 24 h): 2.641
HIF-1α/Reference 120 kDa, densitometric intensity ratio (U-251 cells; U-251, 6µM, 24 h): 0.661
PARP/Reference 116 kDa, densitometric intensity ratio (U-251 cells; U-251, 6µM, 24 h): 0.940
caspase-9/Reference 47 kDa, densitometric intensity ratio (U-251 cells; U-251, 6µM, 24 h): 1.035
cdc2/Reference 34 kDa, densitometric intensity ratio (U-251 cells; U-251, 6µM, 24 h): 2.282
cyclin E1/Reference 48 kDa, densitometric intensity ratio (U-251 cells; U-251, 6µM, 24 h): 0.392
p21/Reference 21 kDa, densitometric intensity ratio (U-251 cells; U-251, 6µM, 24 h): 2.783
p53/Reference 53 kDa, densitometric intensity ratio (U-251 cells; U-251, 6µM, 24 h): 1.448
Cathepsin b/Reference 27 kDa, densitometric intensity ratio (U-251 cells; U-251, 6µM, 24 h): 3.172
Cathepsin b/Reference 22 kDa, densitometric intensity ratio (U-251 cells; U-251, 6µM, 24 h): 3.717

inhibition at 0.5 µM (ABL1): 0%
inhibition at 0.5 µM (BRK): 35.5%
inhibition at 0.5 µM (BTK): 26.9%
inhibition at 0.5 µM (CSK): 28.3%
inhibition at 0.5 µM (Fyn A): 3.51%
inhibition at 0.5 µM (Lck): 19.5%
inhibition at 0.5 µM (Lyn B): 0%
inhibition at 0.5 µM (Src): 0%
Structure (SMILES): COc1ccccc1/C=C/c1nc(OS(=O)(=O)c2ccc(C)cc2)c2ccccc2n1 [BS4, 2-((E)-2-(2-methoxyphenyl)ethenyl)quinazolin-4-yl 4-methylbenzenesulfonate]
IC50 (HCT 116 p53^+/+ cells): 1.57 ± 0.357 µM
Selectivity index, HCT 116 p53+/+ (HCT 116 p53^+/+ cells): 15.95
IC50 (HCT 116 p53^−/− cells): 3.72 ± 0.487 µM
Selectivity index, HCT 116 p53 −/− (HCT 116 p53^−/− cells): 6.71
IC50 (MCF-7 cells): 9.13 ± 2.05 µM
Selectivity index, MCF-7 (MCF-7 cells): 2.74
IC50 (A549 cells): 11.3 ± 1.76 µM
Selectivity index, A549 (A549 cells): 2.20
Cleavage product of caspase-9 (Western blot) (U-251 cells; U-251, 6 μM, 24 h): approximately three-fold increase
HIF-1α protein expression (Western blot) (U-251 cells; U-251, 24 h): significant decrease
p21 protein expression (Western blot) (U-251 cells; U-251, 24 h): more than two-fold increase
p53 protein levels (Western blot) (U-251 cells; U-251, 24 h): statistically significant increase
